Here are results for 25 molecules from patent publication US10301261B2, “Substituted indoles as modulators of ROR-gamma” (Vitae Pharmaceuticals, LLC, priority 2015, dated 2019).

Where only a bound is given, the exact number is not on record here.

Test [1] concerns the target recombinant RORγ Ligand Binding Domain (LBD) protein (Homo sapiens (Human), UniProt P51449). Put plainly: Radio-Ligand RORγ Binding Assay (Assay 1). To be noted: radio-ligand 25-hydroxy [26,27-3H]-cholesterol competition. In outline:
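Cell-free competition with 25-hydroxy[26,27-³H]-cholesterol for the ligand site of 6×His-GST-tagged RORγ LBD; SPA read-out with poly-Lys YSi beads after shaking and incubation at rt. IC50 taken as the inflection point of a four-parameter fit of percent inhibition vs concentration.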

Test [2] deals with full-length RORγt in Jurkat cells (Homo sapiens (Human), UniProt P51449). Put plainly: RORγt 5×RORE Assay in Jurkat Cells (Assay 2). In kind it is cell-based. The conditions noted are these: RORγt 5×RORE Nanoluc reporter. Here is the method: [formula] RORγt 5×RORE Assay in Jurkat Cells (Assay 2)
Sequence of full-length RORγt in Jurkat cells (P51449 other isoform, or with tags, fused parts or gaps): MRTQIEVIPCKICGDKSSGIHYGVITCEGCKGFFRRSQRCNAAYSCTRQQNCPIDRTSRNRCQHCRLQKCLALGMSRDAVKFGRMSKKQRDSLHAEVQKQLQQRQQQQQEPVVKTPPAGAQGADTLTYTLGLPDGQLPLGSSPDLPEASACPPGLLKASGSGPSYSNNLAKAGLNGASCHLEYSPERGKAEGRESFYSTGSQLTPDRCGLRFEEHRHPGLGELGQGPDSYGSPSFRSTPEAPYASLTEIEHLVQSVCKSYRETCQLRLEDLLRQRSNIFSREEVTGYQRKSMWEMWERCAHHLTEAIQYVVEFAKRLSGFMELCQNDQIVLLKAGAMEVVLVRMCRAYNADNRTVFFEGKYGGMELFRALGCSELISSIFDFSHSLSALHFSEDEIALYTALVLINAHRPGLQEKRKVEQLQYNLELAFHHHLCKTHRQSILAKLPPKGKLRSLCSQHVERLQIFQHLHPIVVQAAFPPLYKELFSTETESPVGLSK
Compounds described herein were tested for RORγ inverse agonist activity in a cell-based, transcriptional activity assay. […] (Promega, Cat. # N1021) using KpnI and HindIII restriction sites. […] Tested compounds were added to the cells in the same media (final concentration of DMSO was 0.1% (v/v)), and the plates were incubated at 37° C./5% CO2 for 16-18 hrs. Luciferase activity in the conditioned supernatants was determined with NanoGlo® assay reagents (Promega, Cat.# N1130).

Sequence of recombinant RORγ Ligand Binding Domain (LBD) protein (P51449 269-508): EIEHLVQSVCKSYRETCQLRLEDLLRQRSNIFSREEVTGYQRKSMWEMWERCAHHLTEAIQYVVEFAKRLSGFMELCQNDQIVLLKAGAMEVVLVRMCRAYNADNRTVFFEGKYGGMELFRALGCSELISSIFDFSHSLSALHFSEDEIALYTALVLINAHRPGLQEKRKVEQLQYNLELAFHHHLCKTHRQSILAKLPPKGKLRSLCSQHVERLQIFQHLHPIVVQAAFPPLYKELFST

Turning to `CCn1c(Cc2ccc3c(c2)OC(F)(F)O3)cc2cc(C(=O)N[C@@H](CO)c3ccc(S(=O)(=O)CC)cn3)ccc21` [IN-5, (R)-2-((2,2-difluorobenzo[d][1,3]dioxol-5-yl)methyl)-1-ethyl-N-(1-(5-(ethylsulfonyl)pyridin-2-yl)-2-hydroxyethyl)-1H-indole-5-carboxamide], the inhibitory constant (Ki) in test [1] was less than 100 nM. In addition, the IC50 in test [2] is less than 100 nM.

Consider `CCn1c(Cc2ccc(Cl)cc2)cc2cc(C(=O)N[C@@H](CO)c3ccc(S(=O)(=O)CC)cn3)ccc21` [IN-8, (R)-2-(4-chlorobenzyl)-1-ethyl-N-(1-(5-(ethylsulfonyl)pyridin-2-yl)-2-hydroxyethyl)-1H-indole-5-carboxamide], for which the Ki in test [1] was less than 100 nM. Moreover, the IC50 in test [2] fell in the range of 100 to 1000 nM.

With `CCS(=O)(=O)c1ccc([C@H](CO)NC(=O)c2ccc3c(c2)nc(CO[C@H]2CC[C@H](C(F)(F)F)CC2)n3C2CC2)cc1` (single isomer, unassigned) [BE-71.2], the Ki in test [1] was less than 100 nM. In test [2], this molecule gave an IC50 of less than 100 nM.

For the molecule `CCS(=O)(=O)c1ccc([C@H](CO)NC(=O)c2ccc3c(c2)cc(Cc2ccc(C(F)(F)F)cc2)n3C2CC2)nc1` [IN-19, (R)-1-cyclopropyl-N-(1-(5-(ethylsulfonyl)pyridin-2-yl)-2-hydroxyethyl)-2-(4-(trifluoromethyl)benzyl)-1H-indole-5-carboxamide], the Ki in test [1] is less than 100 nM. The molecule further displayed an IC50 in test [2] of less than 100 nM.

Turning to `CCn1c(OCC2CC2)nc2cc(C(=O)N[C@@H](CO)c3ccc(S(=O)(=O)CC)cc3)ccc21` [BE-17, (R)-2-(cyclopropylmethoxy)-1-ethyl-N-(1-(4-(ethylsulfonyl)phenyl)-2-hydroxyethyl)-1H-benzo[d]imidazole-5-carboxamide], the Ki in test [1] is less than 100 nM. In test [2], this molecule came in with an IC50 greater than 1000 nM.

Take `CCS(=O)(=O)c1ccc(CNC(=O)c2ccc3c(c2)nc(C[C@H]2CC[C@H](C(F)(F)F)CC2)n3C2CC2)nc1` [BE-27.1, 1-cyclopropyl-N-((5-(ethylsulfoyl)pyridin-2-yl)methyl)-2-(((1r,4r)-4-(trifluoromethyl)cyclohexyl)methyl)-1H-benzo[d]imidazole-5-carboxamide]: the inhibitory constant (Ki) in test [1] was less than 100 nM. Further, in test [2], the half-maximal inhibitory concentration (IC50) was less than 100 nM.

In the case of `CCS(=O)(=O)c1ccc(CNC(=O)c2cnc3c(c2)nc(C[C@H]2CC[C@@H](C(F)(F)F)CC2)n3C2CC2)cc1` [AB-1.2, 3-cyclopropyl-N-(4-(ethylsulfonyl)benzyl)-2-(((1s,4s)-4-(trifluoromethyl)cyclohexyl)methyl)-3H-imidazo[4,5-b]pyridine-6-carboxamide], the inhibitory constant (Ki) in test [1] is less than 100 nM. In test [2], this molecule had an IC50 greater than 1000 nM.

For `CCS(=O)(=O)c1ccc(CNC(=O)c2ccc3c(c2)nc(C(=O)c2ccc(C(F)(F)F)cc2)n3C2CC2)cc1` [BE-65, 1-cyclopropyl-N-(4-(ethylsulfonyl)benzyl)-2-(4-(trifluoromethyl)benzoyl)-1H-benzo[d]imidazole-5-carboxamide], in test [1], the inhibition constant (Ki) is less than 100 nM. This molecule returned a 50% inhibitory concentration (IC50) in test [2] of less than 100 nM.

For `CCn1c(OCC2CCC(F)(F)CC2)nc2cc(C(=O)N[C@@H](CO)c3ccc(S(=O)(=O)CC)cc3)ccc21` [BE-12, (R)-2-((4,4-difluorocyclohexyl)methoxy)-1-ethyl-N-(1-(4-(ethylsulfonyl)phenyl)-2-hydroxyethyl)-1H-benzo[d]imidazole-5-carboxamide], the inhibitory constant (Ki) in test [1] is less than 100 nM. The molecule further had an IC50 in test [2] greater than 1000 nM.

For the molecule `CCn1c(C[C@H]2CC[C@H](C(F)(F)F)CC2)cc2cc(C(=O)N[C@@H](CO)c3ccc(S(=O)(=O)CC)cc3)ccc21` [IN-16.1, 1-ethyl-N-((R)-1-(4-(ethylsulfonyl)phenyl)-2-hydroxyethyl)-2-(((1r,4R)-4-(trifluoromethyl)cyclohexyl)methyl)-1H-indole-5-carboxamide], in test [1], the inhibition constant Ki is less than 100 nM. For the same molecule, the half-maximal inhibitory concentration (IC50) in test [2] was less than 100 nM.

For `CCn1c(C[C@H]2CC[C@H](C(F)(F)F)CC2)cc2cc(C(=O)NCc3ccc(S(=O)(=O)CC)cc3)ccc21` [IN-17.1, 1-ethyl-N-(4-(ethylsulfonyl)benzyl)-2-(((1r,4r)-4-(trifluoromethyl)cyclohexyl)methyl)-1H-indole-5-carboxamide], the inhibitory constant (Ki) in test [1] is less than 100 nM. The molecule further came in with an IC50 in test [2] of less than 100 nM.

Turning to `CCn1c(Cc2ccc(C(F)(F)F)cc2)nc2cc(C(=O)NCc3ccc(S(=O)(=O)CC)cc3)ccc21` [BE-35, 1-ethyl-N-(4-(ethylsulfonyl)benzyl)-2-(4-(trifluoromethyl)benzyl)-1H-benzo[d]imidazole-5-carboxamide], the Ki in test [1] is less than 100 nM. In test [2], the IC50 is less than 100 nM.

On to `CCS(=O)(=O)c1ccc(CNC(=O)c2cnc3c(c2)nc(Cc2ccc(C(F)(F)F)cc2)n3C2CC2)cc1` [AB-3, 3-cyclopropyl-N-(4-(ethylsulfonyl)benzyl)-2-(4-(trifluoromethyl)benzyl)-3H-imidazo[4,5-b]pyridine-6-carboxamide], for which the Ki in test [1] is less than 100 nM. In test [2], this molecule gave a half-maximal inhibitory concentration (IC50) of less than 100 nM.

`CCn1c(Cc2ccc(C#N)cc2)cc2cc(C(=O)N[C@@H](CO)c3ccc(S(=O)(=O)CC)cn3)ccc21` [IN-21, (R)-2-(4-cyanobenzyl)-1-ethyl-N-(1-(5-(ethylsulfonyl)pyridin-2-yl)-2-hydroxyethyl)-1H-indole-5-carboxamide]: in test [1], the Ki is less than 100 nM. For the same molecule, in test [2], the half-inhibitory concentration (IC50) is 100 to 1000 nM.

Turning to `CCS(=O)(=O)c1ccc(CNC(=O)c2ccc3c(c2)nc(C[C@H]2CC[C@@H](C(F)(F)F)CC2)n3CC(C)C)nc1` [BE-26.2, N-((5-(ethylsulfonyl)pyridin-2-yl)methyl)-1-isobutyl-2-(((1s,4s)-4-(trifluoromethyl)cyclohexyl)methyl)-1H-benzo[d]imidazole-5-carboxamide], the inhibition constant Ki in test [1] was less than 100 nM. The same molecule gave an IC50 in test [2] greater than 1000 nM.

As for `CCn1c(Oc2ccc(OC(F)(F)F)cc2)nc2cc(C(=O)N[C@@H](CO)c3ccc(S(=O)(=O)CC)cc3)ccc21` [BE-9, (R)-1-ethyl-N-(1-(4-(ethylsulfonyl)phenyl)-2-hydroxyethyl)-2-(4-(trifluoromethoxy)phenoxy)-1H-benzo[d]imidazole-5-carboxamide], the inhibitory constant (Ki) in test [1] is less than 100 nM. This molecule also registered a concentration for half-maximal inhibition (IC50) in test [2] of less than 100 nM.

On to `CCn1c(O[C@H]2CC[C@H](C(F)(F)F)CC2)nc2cc(C(=O)NCc3ccc(S(=O)(=O)CC)cc3)ccc21` [BE-2, 1-ethyl-N-(4-(ethylsulfonyl)benzyl)-2-(((1r,4r)-4-(trifluoromethyl)cyclohexyl)oxy)-1H-benzo[d]imidazole-5-carboxamide], for which the Ki in test [1] is less than 100 nM. In addition, the IC50 in test [2] was less than 100 nM.

With `CCS(=O)(=O)c1ccc([C@H](CCO)NC(=O)c2ccc3c(c2)nc(C[C@H]2CC[C@H](C(F)(F)F)CC2)n3C2CC2)cc1` [BE-25, 1-cyclopropyl-N-((S)-1-(4-(ethylsulfonyl)phenyl)-3-hydroxypropyl)-2-(((1r,4S)-4-(trifluoromethyl)cyclohexyl)methyl)-1H-benzo[d]imidazole-5-carboxamide], in test [1], the Ki was less than 100 nM. The molecule further registered an IC50 in test [2] of less than 100 nM.

For `CCS(=O)(=O)c1ccc([C@H](CO)NC(=O)c2ccc3c(c2)nc(OCC2CCC(F)(F)CC2)n3C2CC2)cc1` [BE-16, (R)-1-cyclopropyl-2-((4,4-difluorocyclohexyl)methoxy)-N-(1-(4-(ethylsulfonyl)phenyl)-2-hydroxyethyl)-1H-benzo[d]imidazole-5-carboxamide], the Ki in test [1] is less than 100 nM. In addition, the IC50 in test [2] was less than 100 nM.

For `CCS(=O)(=O)c1ccc([C@H](CO)NC(=O)c2ccc3c(c2)nc(O[C@H]2CC[C@H](C(F)(F)F)CC2)n3C2CC2)cc1` [BE-1, 1-cyclopropyl-N-((R)-1-(4-(ethylsulfonyl)phenyl)-2-hydroxyethyl)-2-(((1r,4R)-4-(trifluoromethyl)cyclohexyl)oxy)-1H-benzo[d]imidazole-5-carboxamide], the inhibitory constant (Ki) in test [1] is less than 100 nM. In test [2], this molecule had an IC50 of less than 100 nM.

For the molecule `CCS(=O)(=O)c1ccc([C@H](CO)NC(=O)c2ccc3c(c2)nc(OCc2ccc(C(F)(F)F)cc2)n3C2CC2)cc1` [BE-15, (R)-1-cyclopropyl-N-(1-(4-(ethylsulfonyl)phenyl)-2-hydroxyethyl)-2-((4-(trifluoromethyl)benzyl)oxy)-1H-benzo[d]imidazole-5-carboxamide], the inhibition constant Ki in test [1] was less than 100 nM. Further, the concentration for half-maximal inhibition (IC50) in test [2] was less than 100 nM.

On to `CNS(=O)(=O)c1ccc(CNC(=O)c2ccc3c(c2)nc(C[C@H]2CC[C@H](C(F)(F)F)CC2)n3C2CC2)nc1` [BE-31, 1-cyclopropyl-N-((5-(N-methylsulfamoyl)pyridin-2-yl)methyl)-2-(((1r,4r)-4-(trifluoromethyl)cyclohexyl)methyl)-1H-benzo[d]imidazole-5-carboxamide], for which, in test [1], the Ki is less than 100 nM. For the same molecule, in test [2], the half-inhibitory concentration (IC50) is greater than 1000 nM.

As to “1-ethyl-N-(4-(ethylsulfonyl)benzyl)-2-(((1s,4s)-4-(trifluoromethyl)cyclohexyl)methyl)-1H-indole-5-carboxamide [IN-17.2]”, in test [1], the Ki was less than 100 nM. Moreover, the half-inhibitory concentration (IC50) in test [2] was greater than 1000 nM.

For `CCS(=O)(=O)c1ccc(CNC(=O)c2ccc3c(c2)nc(CC2CCN(C(=O)OC(C)(C)C)CC2)n3C2CC2)cc1` [BE-49, tert-butyl 4-((1-cyclopropyl-5-((4-(ethylsulfonyl)benzyl)carbamoyl)-1H-benzo[d]imidazol-2-yl)methyl)piperidine-1-carboxylate], the inhibitory constant (Ki) in test [1] is less than 100 nM. In test [2], the IC50 lay in the range of 100 to 1000 nM.

For `CCS(=O)(=O)c1ccc(CNC(=O)c2ccc3c(c2)nc(C[C@H]2CC[C@H](OC)CC2)n3C2CC2)cc1` [BE-46.1, 1-cyclopropyl-N-(4-(ethylsulfonyl)benzyl)-2-(((1r,4r)-4-methoxycyclohexyl)methyl)-1H-benzo[d]imidazole-5-carboxamide], the inhibition constant Ki in test [1] is less than 100 nM. The same molecule yielded a concentration for half-maximal inhibition (IC50) in test [2] of 100 to 1000 nM.

A word on the Ki: it is the equilibrium dissociation constant of an inhibitor or competing ligand from its target. By IC50 is commonly meant the concentration needed to halve the response being measured. A higher IC50 goes with weaker potency in that assay.
